Read-outs that look alike come from different tables or passages of the source.
How the values were obtained:
RORγt [1] = molecular target: T1, RORγt (Homo sapiens, UniProt P51449); experiment: RORγt binding test (TR-FRET, fluorescent-labeled cholesterol); settings: binding inhibitory rate of fluorescent-labeled cholesterol to RORγt at test compound 1 μM
T1 sequence (P51449 1-497 isoform P51449-2): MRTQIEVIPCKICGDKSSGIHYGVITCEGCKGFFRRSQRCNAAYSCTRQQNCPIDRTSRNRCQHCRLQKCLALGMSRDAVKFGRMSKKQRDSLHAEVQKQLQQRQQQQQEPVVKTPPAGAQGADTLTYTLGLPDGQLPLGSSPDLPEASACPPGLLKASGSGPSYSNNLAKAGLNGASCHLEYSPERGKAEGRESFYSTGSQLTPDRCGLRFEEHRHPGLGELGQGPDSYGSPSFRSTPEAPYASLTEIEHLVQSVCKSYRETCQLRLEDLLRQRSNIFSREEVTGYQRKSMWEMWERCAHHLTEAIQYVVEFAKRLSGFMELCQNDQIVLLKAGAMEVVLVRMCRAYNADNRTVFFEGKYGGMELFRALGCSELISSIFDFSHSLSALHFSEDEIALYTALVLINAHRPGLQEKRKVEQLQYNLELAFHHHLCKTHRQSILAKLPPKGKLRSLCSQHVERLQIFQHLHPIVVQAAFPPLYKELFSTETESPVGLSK
Experimental: The binding activity of the test compound to RORγt was measured by a time resolved fluorescence resonance energy transfer method (TR-FRET) utilizing histidine-tagged RORγt, fluorescent-labeled cholesterol (BODIPY-cholesterol, AVIVA) and terbium-labeled anti-histidine tag antibody (Invitrogen). First, a test compound diluted with an assay buffer (20 mM Tris-HCl (pH 7.5), 100 mM NaCl, 1 mM DTT, 0.1% BSA) was added to a 384 well plate by 3 μL each. Then, RORγt diluted with an assay buffer to 240 nM was added by 3 μL each, after which fluorescent-labeled cholesterol diluted with the assay buffer to 12 μM was added by 3 μL each, and the mixture was stood at room temperature for 20 min. Thereafter, a terbium-labeled anti-histidine tag antibody diluted with the assay buffer to 8 nM was added by 3 μL each. The mixture was stood at room temperature for 20 min, and fluorescence intensity (excitation wavelength 320 nm, fluorescence wavelength 520 nm, delay time 100 microseconds) was measured by Envision (PerkinElmer).

RORγt [2] = molecular target: T1, RORγt; experiment: Cofactor recruitment test (Alpha Screen, biotinylated SRC-1 peptide); format: biochemical; settings: test compound 1 μM; read-out: signal value inhibitory rate (%)
Experimental: Cofactor Recruitment Test
Cofactor recruitment test was performed by Alpha Screen (Histidine Detection Kit, PerkinElmer) method. First, a test compound diluted with an assay buffer (50 mM Tris-HCl (pH 7.5), 50 mM KCl, 1 mM DTT, 0.1% BSA) was added to a 384 well plate by 5 μL each. […] The mixture was stood in a dark place for 1 hr, and the signal value was measured by Envision (PerkinElmer).

Th17 cells = experiment: Mouse Th17 cell differentiation test (IL-17A by ELISA); format: cell-based; settings: 96 h, 10 μM of test compound, IL-17A in culture supernatant, 4 days, read-out: inhibitory rate(%)
Experimental: Mouse Th17 Cell Differentiation Test
CD4 positive naive T cells were collected from the spleen cells of Balb/c mice (female, 8-11w) using CD4+CD62L+ T Cell Isolation kit II (Miltenyi Biotec). The CD4 positive naive T cells was plated in a 96 well plate (3×10^5 cells/well), and stimulated (37° C. for culture) with anti-mouse CD3ε antibody (10 μg/mL, solid phase) and anti-CD28 antibody (5 μg/mL) for 4 days in the presence of anti-IFN-γ antibody, anti-IL-4 antibody, anti-IL-2 antibody, IL-6, TGF-β and IL-23 to differentiate into Th17 cells. The compound was dissolved in DMSO and then added thereto. The cells were cultured under these conditions for 4 days, and differentiation of the Th17 cells was evaluated by using the concentration of IL-17A, which was measured by ELISA, in the culture supernatant obtained by centrifugation.

RORγt [3] = molecular target: T1, RORγt; experiment: Jurkat reporter test (IL-17 ROR response element luciferase); format: cell-based; design: expressed in transfected cells; host or cells: Jurkat cells; settings: test compound 3 μM, Jurkat cells, read-out: luminescence level inhibitory rate (%)
Experimental: The Jurkat cells used for the reporter test were cultured in a culture medium (RPMI (Invitrogen), 10% FCS (AusGeneX), 100 U/mL penicillin, 100 μg/mL streptomycin). On the day of the test, 4×10^7 cells were recovered by a centrifugal operation (1000 rpm, 5 min.) and suspended in PBS (phosphate buffered saline) (Invitrogen). Thereafter, the cells were recovered again by a centrifugal operation, and suspended in 2 mL of R buffer (NEON transfection kit, Invitrogen). […] Gene transfer was performed by Electroporation apparatus (NEON, Invitrogen) under the conditions of pulse voltage 1350 V, interval 10 milliseconds, number of times 3. The cells after gene transfer were suspended in 40 mL of a reaction medium (RPMI, 10% Lipid reduced FCS (HyClone), 10 mM HEPES (pH 7.5), 100 U/mL penicillin, 100 μg/mL streptomycin, 5 μM lovastatin), and plated in a 96 well plate by 90 μL each. A test compound diluted with the reaction medium was added by 10 μL each, and the cells were cultured overnight in an incubator. Bright-Glo (Promega) was added by 100 μL each, and the mixture was stirred at room temperature for 10 min, and the luminescence level was measured by Envision (PerkinElmer).

human PBMC = experiment: IL17 production test in human PBMC; format: cell-based; settings: 72 h, 10 μM of test compound, IL-17A in culture supernatant, 3 days, read-out: inhibitory rate (%)
Experimental: IL17 Production Test in Human PBMC
Peripheral blood mononuclear cells (PBMC) collected from human peripheral blood by a density gradient centrifugation method were stimulated by Dynabeads (registered trade mark; anti-CD3/CD28 antibody) and cultured at 37° C. for 3 days. The test compound was dissolved in DMSO and then added thereto. After culture for 3 days under such conditions, the concentration of IL-17A in the culture supernatant obtained by centrifugation was measured by ELISA to evaluate the effect of the compound on IL-17 production.

CCn1c(=O)c2cc(NC(=O)CC(C)CNC(=O)c3ccc(C#N)c(Cl)c3)ccc2n(CC)c1=O (centres unmarked) [Example 23, 3-chloro-4-cyano-N-(4-((1,3-diethyl-2,4-dioxo-1,2,3,4-tetrahydroquinazolin-6-yl)amino)-2-methyl-4-oxobutyl)benzamide]
inhibition at 1 µM (RORγt [1]): 97.3%
inhibition at 1 µM (RORγt [2]): 104%
inhibition at 10 µM (Th17 cells): 94%
inhibition at 3 µM (RORγt [3]): 115%

CCC1Oc2cc(NC(=O)CC(C)CC(=O)Nc3ccc(C#N)c(Cl)c3)ccc2N(CC)C1=O (centres unmarked) [Example 7, N-(3-chloro-4-cyanophenyl)-N′-(2,4-diethyl-3-oxo-3,4-dihydro-2H-1,4-benzoxazin-7-yl)-3-methylpentanediamide]
inhibition at 10 µM (human PBMC): 100%

CCn1c(=O)c2cc(C(=O)NCC(C)CC(=O)Nc3ccc(C#N)c(Cl)c3)ccc2n(CC)c1=O (centres unmarked) [Example 4, N-(4-((3-chloro-4-cyanophenyl)amino)-2-methyl-4-oxobutyl)-1,3-diethyl-2,4-dioxo-1,2,3,4-tetrahydroquinazoline-6-carboxamide]
inhibition at 1 µM (RORγt [1]): 96.7%
inhibition at 1 µM (RORγt [2]): 105%
inhibition at 10 µM (human PBMC): 97%
inhibition at 3 µM (RORγt [3]; Jurkat): 116%

CCN1C(=O)C(c2ccccc2)Oc2cc(NC(=O)CC(C)CC(=O)Nc3ccc(C#N)c(Cl)c3)ccc21 (centres unmarked) [Example 12, N-(3-chloro-4-cyanophenyl)-N′-(4-ethyl-3-oxo-2-phenyl-3,4-dihydro-2H-1,4-benzoxazin-7-yl)-3-methylpentanediamide]
inhibition at 1 µM (RORγt [1]): 98.3%
inhibition at 1 µM (RORγt [2]): 104%
inhibition at 10 µM (Th17 cells): 97%
inhibition at 10 µM (human PBMC): 97%
inhibition at 3 µM (RORγt [3]; Jurkat): 120%

CCn1c(=O)c2cc(C(=O)NCC(CC(=O)Nc3ccc(C#N)c(Cl)c3)C(C)C)ccc2n(CC)c1=O (centres unmarked) [Example 17, N-(4-((3-chloro-4-cyanophenyl)amino)-2-isopropyl-4-oxobutyl)-1,3-diethyl-2,4-dioxo-1,2,3,4-tetrahydroquinazoline-6-carboxamide]
inhibition at 1 µM (RORγt [1]): 101%
inhibition at 1 µM (RORγt [2]): 103%
inhibition at 10 µM (human PBMC): 84%
inhibition at 3 µM (RORγt [3]; Jurkat): 121%

CC(CC(=O)Nc1ccc(C#N)c(Cl)c1)CC(=O)Nc1ccc2c(c1)c(=O)n(CC1CC1)c(=O)n2CC1CC1 (centres unmarked) [Example 2, N-(1,3-bis(cyclopropylmethyl)-2,4-dioxo-1,2,3,4-tetrahydroquinazolin-6-yl)-N′-(3-chloro-4-cyanophenyl)-3-methylpentanediamide]
inhibition at 10 µM (Th17 cells): 97%
inhibition at 10 µM (human PBMC): 96%

CCn1c(=O)c2cc(NC(=O)CC(C)CC(=O)Nc3ccc(C#N)c(Cl)c3)cc(F)c2n(CC)c1=O (centres unmarked) [Example 129, N-(3-chloro-4-cyanophenyl)-N′-(1,3-diethyl-8-fluoro-2,4-dioxo-1,2,3,4-tetrahydroquinazolin-6-yl)-3-methylpentanediamide]
inhibition at 1 µM (RORγt [1]): 100%
inhibition at 1 µM (RORγt [2]): 100%
inhibition at 3 µM (RORγt [3]; Jurkat): 102%

CCn1c(=O)c2cc(NC(=O)CC(C)CC(=O)Nc3ccc(C#N)c(Cl)c3)ccc2n(CSC)c1=O (centres unmarked) [Example 99, N-(3-chloro-4-cyanophenyl)-N′-(3-ethyl-1-((methylsulfanyl)methyl)-2,4-dioxo-1,2,3,4-tetrahydroquinazolin-6-yl)-3-methylpentanediamide]
inhibition at 1 µM (RORγt [1]): 95.6%
inhibition at 1 µM (RORγt [2]): 103%
inhibition at 3 µM (RORγt [3]; Jurkat): 102%

CCn1c(=O)c2cc(NC(=O)CC(C)CC(=O)Nc3ccc(C#N)c(Cl)c3)c(F)cc2n(CC)c1=O (centres unmarked) [Example 130, N-(3-chloro-4-cyanophenyl)-N′-(1,3-diethyl-7-fluoro-2,4-dioxo-1,2,3,4-tetrahydroquinazolin-6-yl)-3-methylpentanediamide]
inhibition at 1 µM (RORγt [1]): 101%
inhibition at 1 µM (RORγt [2]): 102%
inhibition at 3 µM (RORγt [3]; Jurkat): 101%

CCn1c(=O)n(CC2CC2)c(=O)c2cc(NC(=O)CC[C@H](O)C(=O)Nc3ccc(C#N)c(Cl)c3)ccc21 [Example 139, (2S)—N^1-(3-chloro-4-cyanophenyl)-N^5-(3-(cyclopropylmethyl)-1-ethyl-2,4-dioxo-1,2,3,4-tetrahydroquinazolin-6-yl)-2-hydroxypentanediamide]
inhibition at 1 µM (RORγt [1]): 102%
inhibition at 1 µM (RORγt [2]): 102%
inhibition at 3 µM (RORγt [3]; Jurkat): 104%

C#CCn1c(=O)c2cc(NC(=O)CC(C)CC(=O)Nc3ccc(C#N)c(Cl)c3)ccc2n(CC)c1=O (centres unmarked) [Example 28, N-(3-chloro-4-cyanophenyl)-N′-(1-ethyl-2,4-dioxo-3-(prop-2-yn-1-yl)-1,2,3,4-tetrahydroquinazolin-6-yl)-3-methylpentanediamide]
inhibition at 1 µM (RORγt [1]): 99.3%
inhibition at 1 µM (RORγt [2]): 105%
inhibition at 3 µM (RORγt [3]; Jurkat): 115%

CCn1c(=O)n(CCCOC)c(=O)c2cc(NC(=O)CC(C)CC(=O)Nc3ccc(C#N)c(Cl)c3)ccc21 (centres unmarked) [Example 21, N-(3-chloro-4-cyanophenyl)-N′-(1-ethyl-3-(3-methoxypropyl)-2,4-dioxo-1,2,3,4-tetrahydroquinazolin-6-yl)-3-methylpentanediamide]
inhibition at 1 µM (RORγt [1]): 103%
inhibition at 1 µM (RORγt [2]): 104%
inhibition at 3 µM (RORγt [3]; Jurkat): 118%

Source: patent publication US9834520B2, “Heterocyclic compound” (TAKEDA PHARMACEUTICAL COMPANY LIMITED, priority 2013, dated 2017)
